In US12054449B2, “Phenylcarbamate crystalline form and method for manufacturing the same” (BIO-PHARM SOLUTIONS CO., LTD., priority 2021, dated 2024):
Entries after “also recorded” stand apart in the source; their conditions may differ.

Tests used:
[1] = Gravimetric vapor sorption (GVS); assay type: physicochemical
Procedure: Sorption isotherms were obtained using an SMS DVS intrinsic water absorption analyzer controlled by SMS Analysis Suite software. A sample temperature was maintained at 25° C. throughout. Humidity was controlled by a mixed stream of dry and wet nitrogen with a total flow rate of 200 mL/min. The relative humidity was measured with a calibrated Rotronic probe (dynamic range: 1.0-100% RH) located near the sample. The weight change (mass relaxation) of the sample as a function of % RH was continuously monitored using a microbalance (accuracy±0.005 mg). 5 to 20 mg of the sample was stored in a prepared stainless steel mesh basket under atmospheric conditions.

[2] = Change of crystalline form on standing or drying (XRPD); assay type: physicochemical; conditions: left overnight on the XRPD disc under laboratory conditions
Procedure: XRPD patterns were detected by CuKα irradiation (30 kV, 10 mA) using a Bruker AXS D2 diffractometer. The analysis was performed using θ-θ geometry and a LynxEye detector at 5 to 42° 2θ with a step size of 0.024° 2θ at 0.1 sec/step.
Samples were run at ambient conditions and prepared as flat specimens using powder received without grinding. About 1 to 2 mg of the sample was lightly pressed on a silicon wafer to obtain a flat surface.

## C[C@H](OC(N)=O)[C@@H](O)c1ccccc1Cl [ED01748-006-001-00, 1-(2-chlorophenyl)-(S)-1-hydroxypropyl-(S)-2-carbamate]
[1]; after GVS experiment
  XRPD post GVS (change in form): no change in morphology; also recorded: Shows no change in form by XRPD post GVS
[1]; second sorption cycle, 0-90% RH, 25° C., listed as Pattern 1
  GVS mass increase: 0.14%
[2]
  Form by XRPD after being left overnight: Pattern 3
